Columns and labels:
Format in all cases: biochemical
[1] = target: T1, PGPH activity of purified bovine erythrocyte 20S proteasome (Bos taurus, UniProt Q3MHN0); test: Enzyme kinetic assay, PGPH activity (Z-LLE-AMC); conditions: for selectivity for the PGPH activity: in words, data not shown for Glu compounds; for kobs/[I] PGPH: Table 3; for kobs/[I] for PGPH activity using Z-LLE-AMC: Examples 9 and 10; for kinact/KI: pH 8, Table 4, inhibitor concentration range in parentheses, read-out: kassoc = kobs/[I] PGPH activity
T1 construct: from tissue; host or cells: bovine erythrocytes (red blood cells)
Experimental: We investigated the potency of inhibitors of various length. Mono-, di-,tri- and tetraleucine α′,β′-epoxides were ranked by determination of the kobs/[I] values for inhibition of the chymotrypsin-like, trypsin-like, and PGPH activities of purified bovine erythrocyte 20S proteasome. Enzyme kinetic assays were performed as described in Example 2.
(§1) Purified bovine erythrocyte proteasome was enzymatically assayed using a variety of different substrates and inhibitors. In order to evaluate the rates of proteolytic inactivation by inhibitors, kassociation (kobs/[I]) values were determined using fluorogenic peptide substrates over a range of inhibitor concentrations.

[2] = target: T2, chymotrypsin-like activity of purified bovine erythrocyte 20S proteasome (Bos taurus, UniProt Q32KL2); test: Enzyme kinetic assay, chymotrypsin-like activity (Suc-LLVY-AMC); conditions: for kobs/[I] Chymotrypsin-like: Table 3; for kobs/[I] for chymotryptic-like activity using Suc-LLVY-AMC: Examples 9 and 10, in M-1s-1; for kinact/KI: pH 8, Table 4, inhibitor concentration range in parentheses, read-out: kassoc = kobs/[I] Chymotrypsin-like activity
T2 construct: from tissue; host or cells: bovine erythrocytes (red blood cells)
Description: (§2) We investigated the potency of inhibitors of various length. Mono-, di-,tri- and tetraleucine α′,β′-epoxides were ranked by determination of the kobs/[I] values for inhibition of the chymotrypsin-like, trypsin-like, and PGPH activities of purified bovine erythrocyte 20S proteasome.
as §1

[3] = target: T3, trypsin-like activity of purified bovine erythrocyte 20S proteasome (Bos taurus, UniProt Q2TBP0); test: Enzyme kinetic assay, trypsin-like activity (Boc-LRR-AMC); conditions: for kobs/[I] for tryptic-like activity using Boc-LRR-AMC: Examples 9 and 10; for kinact/KI: pH 8, Table 4, inhibitor concentration range in parentheses, read-out: kassoc = kobs/[I] Trypsin-like activity
T3 construct: from tissue; host or cells: bovine erythrocytes (red blood cells)
Description: as §2, §1

kobs/[I] for chymotryptic-like activity using Suc-LLVY-AMC [2] | kobs/[I] for PGPH activity using Z-LLE-AMC [1] | kobs/[I] for tryptic-like activity using Boc-LRR-AMC [3] | Molecule | also measured
 |  |  | CC(=O)N1CCC[C@H]1C(=O)N[C@@H](Cc1ccccc1)C(=O)N[C@@H](CCC(=O)O)C(=O)[C@@]1(C)CO1 [Ac-Pro-Phe-Glu-α′,β′-epoxyketone] | selectivity for the PGPH activity [1]: did not display any significant selectivity
 |  |  | CC(=O)N1CCC(C(=O)N2CCC[C@H]2C(=O)N[C@@H](Cc2ccccc2)C(=O)N[C@@H](CC(C)C)C(=O)[C@@]2(C)CO2)CC1 [N-acetyl-piperidinecarbonyl-PFL-Ex] | kobs/[I] Chymotrypsin-like [2]: 31.2 ± 0.6 M⁻¹ s⁻¹; kobs/[I] PGPH [1]: 45.3 ± 2.2 M⁻¹ s⁻¹
29,000 | not measurable | not measurable | CC(=O)N[C@@H](CC(C)C)C(=O)N[C@@H](CC(C)C)C(=O)N[C@@H](Cc1cccc2ccccc12)C(=O)N[C@@H](CC(C)C)C(=O)[C@@]1(C)CO1 [P2 1-naphthyl] | 
31,000 | not measurable | not measurable | CC(=O)N[C@@H](CC(C)C)C(=O)N[C@@H](Cc1cccc2ccccc12)C(=O)N[C@@H](CC(C)C)C(=O)N[C@@H](CC(C)C)C(=O)[C@@]1(C)CO1 [P3 1-naphthyl] | 
29,000 | not measurable | not measurable | CC(=O)N[C@@H](Cc1cccc2ccccc12)C(=O)N[C@@H](CC(C)C)C(=O)N[C@@H](CC(C)C)C(=O)N[C@@H](CC(C)C)C(=O)[C@@]1(C)CO1 [P4 I -naphthyl] | 
63,000 | 50 | 5.4 M⁻¹ s⁻¹ | CC(=O)N[C@@H](CCc1ccccc1)C(=O)N[C@@H](CC(C)C)C(=O)N[C@@H](CC(C)C)C(=O)N[C@@H](CC(C)C)C(=O)[C@@]1(C)CO1 [P4 methylphenyl] | 
23,000 | not measurable | not measurable | CC(=O)N[C@@H](Cc1ccc(C(=O)c2ccccc2)cc1)C(=O)N[C@@H](CC(C)C)C(=O)N[C@@H](CC(C)C)C(=O)N[C@@H](CC(C)C)C(=O)[C@@]1(C)CO1 [P4 p-benzoylphenyl] | 
37,000 | 78 | 5.5 M⁻¹ s⁻¹ | CC(=O)N[C@@H](Cc1ccccc1)C(=O)N[C@@H](CC(C)C)C(=O)N[C@@H](CC(C)C)C(=O)N[C@@H](CC(C)C)C(=O)[C@@]1(C)CO1 [P4 phenyl] | 
 |  |  | CC(C)[C@H](O)[C@@]12NC(=O)[C@H](C)[C@@H]1OC2=O [drawing 17, reference compound] | kinact/KI [2]: 7400 M⁻¹ s⁻¹; kinact/KI [1]: 47 M⁻¹ s⁻¹; kinact/KI [3]: 68 M⁻¹ s⁻¹
 |  |  | CC(C)C[C@H](NC(=O)[C@H](Cc1ccccc1)NC(=O)c1cnccn1)B(O)O [reference compound] | kinact/KI [2]: 53000 M⁻¹ s⁻¹; kinact/KI [1]: 3200 M⁻¹ s⁻¹
 |  |  | CC(C)C[C@@H](/C=C/S(C)(=O)=O)NC(=O)[C@H](CC(C)C)NC(=O)[C@H](CC(C)C)NC(=O)Cc1cc(N)c(O)c(I)c1 [reference compound] | kinact/KI [2]: 5000 M⁻¹ s⁻¹; kinact/KI [1]: 4 M⁻¹ s⁻¹; kinact/KI [3]: 3.4 M⁻¹ s⁻¹
 |  |  | isooctanoyl-Ser-Glu-α′,β′-epoxyketone | selectivity for the PGPH activity [1]: poor PGPH-selective inhibitors
 |  |  | isooctanoyl-Ser-Leu-α′,β′-epoxyketone [Eponemycin, reference compound] | kobs/[I] Chymotrypsin-like [2]: 58 ± 14 M⁻¹ s⁻¹; kobs/[I] PGPH [1]: 175 ± 2 M⁻¹ s⁻¹; selectivity for the PGPH activity [1]: modest selectivity toward the PGPH activity; kobs/[I] Trypsin-like ([3]; Table 3): 17 ± 3 M⁻¹ s⁻¹
 |  |  | isooctanoyl-Thr-Glu-α′,β′-epoxyketone | selectivity for the PGPH activity [1]: poor PGPH-selective inhibitors

Molecule | kobs/[I] for chymotryptic-like activity using Suc-LLVY-AMC [2] | kobs/[I] for PGPH activity using Z-LLE-AMC [1] | kobs/[I] for tryptic-like activity using Boc-LRR-AMC [3] | also measured
CC(C)C[C@H](NC(=O)[C@@H](N)CCc1ccccc1)C(=O)N[C@@H](Cc1ccccc1)C(=O)N[C@@H](CC(C)C)C(=O)[C@@]1(C)CO1 [compound 18] | 5200 |  | 580 M⁻¹ s⁻¹ | kinact/KI [2]: 5200 M⁻¹ s⁻¹; kinact/KI [1]: 11 M⁻¹ s⁻¹; kinact/KI [3]: 580 M⁻¹ s⁻¹

Source: patent US7476650B2, “Enzyme inhibition” (Yale University, priority 1999, dated 2009)
